# According to patent US7759373B2, “Large conductance calcium-activated K channel opener” (Mitsubishi Tanabe Pharma Corporation, priority 2001, dated 2010):
# Counter-ions that a name gives are not always drawn.
row,melting point,Structure (SMILES)
1,287 to 289 °C,CCc1nc(-c2ccc(F)cc2)[nH]c1-c1cncnc1 (as salt: HCl) [Preparation example 85]
2,256 to 259 °C,CSCc1nc(-c2ccc(C#N)cc2)[nH]c1-c1ccccc1 (as salt: HCl) [Preparation example 132]
3,215 to 217 °C,CCc1nc(-c2cccs2)[nH]c1-c1cccnc1 (as salt: HCl) [Preparation example 20]
4,250 to 253 °C,CCc1nc(-c2ccccc2C(N)=O)[nH]c1-c1cccnc1 (as salt: HCl) [Preparation example 18]
5,225 to 228 °C,OCc1nc(-c2ccc(F)cc2)[nH]c1-c1cccnc1 [Preparation example 113]
6,208 to 209 °C,O=C(O)Cc1nc(-c2ccc(F)cc2)oc1-c1cccs1 [Preparation Example 189]
7,250 to 255 °C,Fc1cccc(-c2ncc(-c3ccccc3)[nH]2)c1 (as salt: HCl) [Preparation example 41]
8,188 to 190 °C,CCCc1nc(-c2cc(Cl)cs2)[nH]c1-c1ccccc1 (as salt: HCl) [Preparation example 40]
9,251 to 254 °C,CCCc1nc(-c2ccc(C#N)cc2)[nH]c1-c1cccs1 (as salt: HCl) [Preparation example 8]
10,228 to 230 °C,CCCc1nc(-c2ccc(F)cc2)[nH]c1-c1cccc(F)c1 (as salt: HCl) [Preparation example 99]
11,198 to 201 °C,Cc1nc(-c2csc(Cl)c2)[nH]c1-c1cccnc1 (as salt: HCl) [Preparation example 54]
12,> 300 °C,N#Cc1ccc(-c2ncc(-c3ccccc3)[nH]2)cc1 (as salt: HCl) [Preparation example 42]
13,125 to 127 °C,CCOC(=O)Cc1nc(-c2ccc(C)cc2)oc1-c1cccs1 [Preparation Example 196]
14,197 to 198 °C,"CCOC(=O)c1nc(-c2ccc(F)cc2)[nH]c1CC [Preparation example 69, ethyl 5-ethyl-2-(4-fluorophenyl)imidazol-4-carboxylate]"
15,241 to 243 °C,CCc1nc(-c2ccc(F)cc2)[nH]c1-c1cnccn1 (as salt: HCl) [Preparation example 49]
16,220 to 222 °C,CCCc1nc(-c2ccc[nH]2)[nH]c1-c1ccccc1 (as salt: HCl) [Preparation example 35]
17,234 to 237 °C,CCCc1nc(C2CCC(=O)N2)[nH]c1-c1cccs1 (stereo not shown) (as salt: HCl) [Preparation example 4]
18,189 to 190 °C,CCCc1nc(-c2ccc3ccccc3c2)[nH]c1-c1ccccc1 (as salt: HCl) [Preparation example 32]
19,204 to 207 °C,COCc1nc(-c2ccc(F)cc2)[nH]c1-c1ccccc1 (as salt: HCl) [Preparation example 121]
20,248 to 251 °C,CCc1nc(-c2ccc(C)nc2)[nH]c1-c1ccccc1 (as salt: HCl) [Preparation example 28]
21,174 to 176 °C,CCCc1nc(-c2ccc(F)cc2)[nH]c1-c1ccc(SC)cc1 (as salt: HCl) [Preparation example 89]
22,168 to 170 °C,CCCc1c[nH]c(-c2ccc(F)cc2)n1 [Preparation example 76]

row,melting point,Structure (SMILES)
1,112 to 113 °C,CCOC(=O)Cc1nc(-c2ccc(COC(C)=O)cc2)oc1-c1ccc(Cl)s1 [Preparation Example 426]
2,207 to 209 °C,O=C(O)Cc1nc(-c2ccc(F)cc2)oc1-c1ccsc1 [Preparation Example 618]
3,214 to 215 °C,O=C(O)Cc1nc(-c2ccc(Cl)cc2)oc1-c1cccs1 [Preparation Example 192]
4,220 to 222 °C,CCCc1nc(-c2ccc(F)cc2)[nH]c1-c1ccc([N+](=O)[O-])cc1 (as salt: HCl) [Preparation example 91]
5,285 to 288 °C,CCc1nc(-c2ccc(C#N)cc2)[nH]c1-c1ccccc1 (as salt: HCl) [Preparation example 27]
6,190 to 192 °C,CCc1nc(-c2ccc(F)cc2)[nH]c1-c1ncccn1 (as salt: HCl) [Preparation example 50]
7,233 to 235 °C,CCCc1nc(-c2ccc(F)cc2)[nH]c1-c1ccc(F)cc1 (as salt: HCl) [Preparation example 87]
8,232 to 234 °C,OCc1nc(-c2cccc(F)c2)[nH]c1-c1ccccc1 [Preparation example 115]
9,198 to 199 °C,COc1ccc(-c2nc(CC(=O)O)c(-c3ccsc3)o2)cc1 [Preparation Example 200]
10,200 to 203 °C (dec.),CCc1nc(-c2ccc(F)cc2)[nH]c1-c1ccccc1OC (as salt: HCl) [Preparation example 84]
11,109 to 111 °C,CCOC(=O)Cc1nc(-c2ccc(Cl)cc2)oc1-c1ccco1 [Preparation Example 191]
12,275 to 280 °C,CCCc1nc(-c2ccncc2)[nH]c1-c1cccs1 (as salt: HCl) [Preparation example 6]
13,145 to 146 °C,CCOC(=O)Cc1nc(-c2cnc3occc3c2)oc1-c1ccc(Cl)s1 [Preparation Example 429]
14,221 to 223 °C,CCc1nc(-c2ccccc2Cl)[nH]c1-c1cccnc1 (as salt: HCl) [Preparation example 12]
15,105 to 107 °C,CCOC(=O)Cc1nc(-c2ccc(OC)cc2)oc1-c1cccs1 [Preparation Example 154]
16,213 to 214 °C,"Clc1ccc(-c2nc(Cc3nnn[nH]3)c(-c3ccccc3)s2)cc1 [Preparation Example 632, 5-[2-(4-chlorophenyl)-5-phenyl-thiazol-4-ylmethyl]tetrazole]"
17,194 to 196 °C,CCCc1nc(-c2csc(Cl)c2)[nH]c1-c1ccccc1 (as salt: HCl) [Preparation example 34]
18,270 to 273 °C (dec.),CCc1[nH]c(-c2ccc(C)nc2)nc1-c1cccnc1.Cl.Cl.Cl
19,215 to 217 °C,CCCc1nc(-c2ccsc2)[nH]c1-c1ccccc1 (as salt: HCl) [Preparation example 33]
20,200 to 202 °C (dec.),NC(=O)Cc1nc(-c2ccc(F)cc2)[nH]c1-c1ccsc1 [Preparation example 44]
21,209 to 211 °C,CSCc1nc(-c2ccc(C#N)cc2)[nH]c1-c1cccnc1 [Preparation example 134]
22,168.5 to 169.5 °C,CCOC(=O)Cc1nc(-c2ccc3ccccc3n2)oc1-c1ccsc1 [Preparation Example 428]

row,melting point,Structure (SMILES)
1,245 to 247 °C,"O=CNc1[nH]c(-c2ccc(F)cc2)nc1-c1ccccc1 [Preparation example 105, 5-formylamino-2-(4-fluorophenyl)-4-phenylimidazole]"
2,175 to 180 °C,CCCc1nc(-c2ccc(NC)cc2)[nH]c1-c1cccs1 (as salt: HCl) [Preparation example 3]
3,218 to 220 °C,CSCc1nc(-c2cccc(F)c2)[nH]c1-c1ccccc1 (as salt: HCl) [Preparation example 131]
4,223 to 224 °C,CCc1nc(-c2cccc(Cl)c2)[nH]c1-c1cccnc1 (as salt: HCl) [Preparation example 13]
5,120 to 122 °C,CCCc1nc(-c2ccc(F)cc2)[nH]c1-c1cccc(OC)c1 (as salt: HCl) [Preparation example 96]
6,118 to 119 °C,CCOC(=O)Cc1nc(-c2ccc(N(C)C)cc2)oc1-c1ccc(Cl)s1 [Preparation Example 384]
7,224 to 226 °C,CCCc1nc(-c2ccc(F)cc2)[nH]c1-c1ccccc1 (as salt: HCl) [Preparation example 88]
8,325 to 328 °C,N#Cc1ccc(-c2ncc(-c3cccnc3)[nH]2)cc1 (as salt: HCl) [Preparation example 23]
9,203 to 204 °C,C[S+]([O-])Cc1[nH]c(-c2ccc(F)cc2)nc1-c1ccccc1 (stereo not shown) (as salt: HCl) [Preparation example 639]
10,192 to 193 °C,CCCc1nc(-c2cccc(F)c2)[nH]c1-c1ccccc1 (as salt: HCl) [Preparation example 30]
11,117 to 117.5 °C,CCOC(=O)Cc1nc(-c2ccc(OC)c(F)c2)oc1-c1cccs1 [Preparation Example 382]
12,260 to 262 °C,CCc1nc(-c2ccc(F)cc2)[nH]c1-c1ccc(C)nc1 (as salt: HCl) [Preparation example 47]
13,253 to 255 °C,"CNc1[nH]c(-c2ccc(F)cc2)nc1-c1ccccc1 (as salt: hydrochloride) [Preparation example 107, 5-methylamino-2-(4-fluorophenyl)-4-phenylimidazole]"
14,262 to 264 °C,CCCc1nc(-c2ccc(F)cc2)[nH]c1-c1cc(Cl)ccc1O (as salt: HCl) [Preparation example 92]
15,178 to 180 °C,CCCc1nc(-c2ccc(F)cc2)[nH]c1Br (as salt: HCl) [Preparation example 79]
16,84 to 86 °C,CCOC(=O)Cc1nc(-c2ccc(OC)c(C)c2)oc1-c1ccsc1 [Preparation Example 410]
17,179 to 180 °C,"OCCc1[nH]c(-c2ccc(Cl)s2)nc1-c1cccnc1 (as salt: hydrochloride) [Preparation example 146, 2-(5-chloro-thiophen-2-yl)-5-hydroxyethyl-4-(3-pyridyl)imidazole]"
18,258 to 260 °C,CCCc1nc(-c2ccc(C#N)cc2)[nH]c1-c1ccccc1 (as salt: HCl) [Preparation example 31]
19,266 to 269 °C,Cc1ccc(-c2nc(CO)c(-c3cccnc3)[nH]2)cn1 (as salt: HCl) [Preparation example 114]
20,185 to 188 °C,COCc1nc(-c2cccc(F)c2)[nH]c1-c1ccccc1 (as salt: HCl) [Preparation example 123]
